Measured values: article PMC6801822, “The Bactericidal Activity of Temporin Analogues Against Methicillin Resistant Staphylococcus aureus” (International Journal of Molecular Sciences, 2019)
In brackets after ≈: the same amount, converted by molar mass. Non-standard residues stand in square brackets, D forms with d. Residues, ends and D or L forms follow the SMILES beside them. AEEA = NCCOCCOCC(=O)O

Assays:
[1] = system: S. aureus USA300; experiment: LIVE/DEAD BacLight staining (SYTO9/PI); type: cell-based, Staphylococcus aureus; conditions: 3 h, n = 2
Experimental: USA300 cells were collected from overnight cultures, at the end of the exponential growth phase and the beginning of the stationary phase, washed and suspended at 2 × 10^7 bacteria/mL and staphylococci were treated with DAL-PEG-DK5 (0.5–50 µg/mL) for 3 h. In order to obtain a standard curve, five different proportions of live and dead bacteria were mixed prior to staining. After the incubation, the 100 µL of bacterial suspensions were transferred to flat bottom black 96-well microtitration plate. Staining solution containing SYTO9 and PI (100 µL) prepared according to manufacturer’s instructions was then mixed with bacterial suspensions. Samples were incubated at room temperature in the dark for 15 min and fluorescence intensity was measured with FlexStation3 Multimode Microplate Reader using a 485 nm excitation filter (for both SYTO9 and PI) and a 530 nm (SYTO9 emission wavelength) and 630 nm (PI emission wavelength) emission filter. The data were analyzed by dividing the fluorescence intensity of the stained bacterial suspensions at green emission by the cell fluorescence intensity of red fluorescence. All samples were prepared in triplicates.

[2] = system: HaCaT cells; experiment: MTT cell viability test; type: cell-based, human
Experimental: Figure 3 The influence of DAL-PEG-DK5 on physiology of human keratinocytes. The potentially toxic effect of DAL-PEG-DK5 on HaCaT cells was evaluated using (A) MTT and (B) LDH assay. Cells were plated on 96-well plates and incubated overnight. Next, keratinocytes were treated with the peptide at different concentrations (5–200 μg/mL) for 3, 6, 18 h. Mean ± SD n = 2. ** p < 0.005 *** p < 0.001 **** p < 0.0001; 2way ANOVA. (C) Morphology of HaCaT cells was examined by confocal laser scanning microscopy. HaCaT cells were treated with CFS-conjugated DAL-PEG-DK5 (25 μg/mL) for 30 min at 37 °C and were stained with: DAPI and phalloidin for nuclear detection and actin cytoskeleton detection, respectively. Blue – DNA; red – f-actin; green-peptide conjugate; scale bar: 10 μm. Images present single slice of XY stacks.
The viability of HaCaT cells was examined by a 3-(4,5-dimethylthiazol-2-yl)-2,5-diphenyltetrazolium bromide (MTT, Sigma-Aldrich) reduction assay. In brief, cells were incubated with 10% (v/v) of a 5 mg/mL MTT solution for 1 to 2 h at 37 °C until purple precipitate is visible and acidified isopropanol was added followed by measuring of the absorbance at a wavelength of 570 nm.

[3] = system: S. aureus USA300 (MRSA) in suspension; experiment: Killing of MRSA in suspension, CFU count; type: cell-based, Staphylococcus aureus; conditions: MRSA 2 × 10^6 CFU/mL, peptide 50 μg/mL, 1 h, n = 2
[4] = system: S. aureus Newman; conditions: S. aureus Newman; broth microdilution, MHB, 37 °C, 24 h, triplicates
Experimental: (§1) Antimicrobial activity of peptides was analyzed through determination of MIC parameter according to the standard microdilution technique performed on 96-well plates. Mueller-Hinton broth (MHB, Sigma Aldrich, St. Louis, MO, USA) was used as the working medium for all bacterial strains. Briefly, inoculum was prepared from freshly grown cultures of bacteria being at their exponential phase of growth. Each well of 96-well plates containing 100 µL of serially diluted peptides in PBS at desired concentration was inoculated with 100 µL of 10^5 CFU/mL of bacterial suspension. Then plates were incubated overnight 37 °C and absorbance was read at 600 nm after 24 h. Wells without peptide were treated as the positive control, while uninoculated MHB was defined as the negative control. All measurements were run in triplicates.

[5] = system: S. aureus ATCC 25923; conditions: S. aureus ATCC 25923; broth microdilution, MHB, 37 °C, 24 h, triplicates
Experimental: as §1

[6] = system: MRSA clinical isolate 1694; conditions: MRSA clinical isolate 1694 (blood); broth microdilution, MHB, 24 h
Experimental: as §1

[7] = system: MRSA clinical isolate 2492; conditions: MRSA clinical isolate 2492 (blood); broth microdilution, MHB, 24 h
Experimental: as §1

[8] = system: MRSA clinical isolate 2706; conditions: MRSA clinical isolate 2706 (blood); broth microdilution, MHB, 24 h
Experimental: as §1

[9] = system: MRSA clinical isolate 2872cv; conditions: MRSA clinical isolate 2872cv (blood); broth microdilution, MHB, 24 h
Experimental: as §1

[10] = system: MRSA clinical isolate 3417; conditions: MRSA clinical isolate 3417 (blood); broth microdilution, MHB, 24 h
Experimental: as §1

[11] = system: MRSA clinical isolate 4187; conditions: MRSA clinical isolate 4187 (blood); broth microdilution, MHB, 24 h
Experimental: as §1

[12] = system: MRSA clinical isolate 6674; conditions: MRSA clinical isolate 6674 (blood); broth microdilution, MHB, 24 h
Experimental: as §1

[13] = system: MRSA clinical isolate 7219; conditions: MRSA clinical isolate 7219 (blood); broth microdilution, MHB, 24 h
Experimental: as §1

[14] = system: MRSA clinical isolate 7501; conditions: MRSA clinical isolate 7501 (blood); broth microdilution, MHB, 24 h
Experimental: as §1

[15] = system: MRSA clinical isolate 7569; conditions: MRSA clinical isolate 7569 (blood); broth microdilution, MHB, 24 h
Experimental: as §1

[16] = system: MRSA clinical isolate 7718; conditions: MRSA clinical isolate 7718 (blood); broth microdilution, MHB, 24 h
Experimental: as §1

[17] = cited from earlier work
Excerpt: The efficient antibacterial activity of the DAL-PEG-DK5 conjugate may be due to the fact that it has a higher cationic charge than DK5 (+7 vs. +6, respectively). However, a α-helicity must also play an important role in this case. According to a common view about the mechanism underlying the antimicrobial activity of AMPs, formation of hel ...

[18] = system: S. aureus USA300 biofilm; experiment: Disruption of mature biofilm, crystal violet; conditions: mature biofilm (24 h) of USA300, peptide at 4 × MIC (160 μg/mL), n = 3
Experimental: USA300 strain was grown in 96-well plates at 37 °C for 24 h to form biofilm. Peptide was added at desired concentrations and plates were incubated for additional 24 h. […] Mean ± SD n = 3. ** p < 0.0151; one-way ANOVA.
Briefly, USA300 strain grown overnight was diluted 1:100 in TSB + 1% glucose and incubated in 96-well plates at 37 °C for 24 h. After removing media, wells were rinsed with PBS to remove planktonic bacteria before re-filling wells with fresh MHB. Peptide conjugates were added at desired concentrations and plates were incubated at 37 °C for 24 h. After incubation, wells were washed and biofilms were stained with 0.5% (w/v) crystal violet for 30 min. The dye was solubilized with ethanol (95%) and the OD of biofilms was measured.

[19] = system: intracellular S. aureus USA300 in HaCaT cells; experiment: Killing of intracellular S. aureus in keratinocytes, CFU count
Experimental: (A) USA300 survival within infected HaCaT cells. Keratinocytes were infected with USA300 (MOI 1:5, 1:25, 1:50, 1:100) for 2.5 h and treated with DAL-PEG-DK5 (50 μg/mL) for 3 h. Afterwards, keratinocytes were lysed and plated on agar plates for counting of bacteria. The number of viable bacterial cells is expressed as CFU/mL with respect to the number of intracellular bacteria in the corresponding control samples. The data shown is representative of two separate experiments performed in triplicate. Mean ± SD n = 2. * p < 0.01; ** p < 0.005; one-way ANOVA. (B) Keratinocytes were infected with USA300 (MOI 1:50) for 2.5 h and treated with DAL-PEG-DK5 (50 μg/mL) for indicated time points (1, 3, 6 h). Afterwards, keratinocytes were lysed and plated on agar plates for counting of bacteria. The number of viable bacterial cells is expressed as a CFU/mL with respect to the number of intracellular bacteria in the corresponding control samples. Mean ± SD n = 2. * p < 0.01; ** p < 0.005; **** p < 0.0001; one-way ANOVA. […] (C) Keratinocytes were infected with USA300 (MOI 1:50) for 2.5 h and treated with DAL-PEG-DK5 (50 μg/mL) for 1 h. Afterwards, keratinocytes were lysed and plated on agar plates for counting of bacteria. […] The number of viable bacterial cells is expressed as a % of control with respect to the number of intracellular bacteria/bacteria in suspension in the corresponding control samples. […]

Which results are given for CC[C@H](C)[C@H](NC(=O)COCCOCCNC(=O)[C@H](CCCNC(=N)N)NC(=O)[C@H](CC(C)C)NC(=O)[C@H](Cc1ccccc1)NC(=O)CNC(=O)[C@@H](C)NC(=O)[C@@H](N)Cc1ccc(O)cc1)C(=O)N[C@@H](CCCCN)C(=O)N[C@@H](CCCCN)C(=O)N[C@H](C(=O)N[C@@H](CC(C)C)C(=O)N[C@@H](CO)C(=O)N[C@H](CCCCN)C(=O)N[C@H](C(=O)N[C@@H](CCCCN)C(=O)N[C@@H](CCCCN)C(=O)N[C@@H](CC(C)C)C(=O)N[C@@H](CC(C)C)C(N)=O)[C@@H](C)CC)[C@@H](C)CC [DAL-PEG-DK5] (H-Y[dA]GFLR[AEEA]IKKILS[dK]IKKLL-NH2; N-terminus assumed)?
live bacteria ([1]; USA300, 5 μg/mL): 20%; live bacteria ([1]; USA300, 10 μg/mL): 5%; effect on metabolism of HaCaT cells (MTT) ([2]; 5 to 75 μg/mL, 3, 6 and 18 h, n = 2): did not affect the metabolism of HaCaT cells; effect on metabolically active HaCaT cells (MTT) ([2]; 100 or 200 μg/mL, 3, 6, 18 h): reduced the number of metabolically active cells in a concentration-dependent manner; reduction in the number of live bacteria in suspension [3]: 74%; MIC [4]: 140 µg/mL (≈ 61.5 µM); MIC [5]: 40 µg/mL (≈ 17.6 µM); MIC [6]: 70 µg/mL (≈ 30.7 µM); MIC [7]: 40 µg/mL (≈ 17.6 µM); MIC [8]: 40 µg/mL (≈ 17.6 µM); MIC [9]: 40 µg/mL (≈ 17.6 µM); MIC [10]: 40 µg/mL (≈ 17.6 µM); MIC [11]: 40 µg/mL (≈ 17.6 µM); MIC [12]: 40 µg/mL (≈ 17.6 µM); MIC [13]: 30 µg/mL (≈ 13.2 µM); MIC [14]: 40 µg/mL (≈ 17.6 µM); MIC [15]: 40 µg/mL (≈ 17.6 µM); MIC [16]: 50 µg/mL (≈ 22 µM); α-helical content ([17]; circular dichroism, 30 mM SDS in water): 35%; cationic charge [17]: +7; reduction of biofilm mass [18]: 50%; reduction of intracellular USA300 load ([19]; HaCaT infected 2.5 h at MOI 1:50 and 1:100, peptide 50 μg/mL, 3 h): more than 60%; reduction of MRSA load in keratinocytes ([19]; HaCaT, USA300 MOI 1:50, peptide 50 μg/mL (1.25 × MIC), 1 h, n = 2): 71.5%
